Article PMC7060258 (Scientific Reports, 2020)
No end group written: not given here.

Tested on: murine neuroblastoma Neuro2a cells
Test: Intracellular ROS formation level (H2DCF-DA)
Assay type: cell-based
Experimental: We estimated whether rHCIQ2c1 is able to inhibit reactive oxygen species (ROS) production. After incubation of Neuro2a cells with rHCIQ2c1 (up to 10 µM) and 6-OHDA (25 µM), ROS content was evaluated by measurement of dichlorofluorescin intensity.
The intracellular ROS level was detected using 2,7-dichlordihydrofluorescein diacetate (H2DCF-DA) solution (Molecular Probes, final concentration 10 µM). In this study, mouse neuroblastoma Neuro2a cells seeded on 96-well plates were washed twice with serum-free DMEM and thereafter incubated for 1 h in serum-free MEM medium in the presence of compounds in concentrations from 10 pM to 10 µM. Cell were treated with 6-OHDA (25 μM) for 30 min at 37 °C with 5% CO2. Followed by treatment with 6-OHDA, the cells were washed once with PBS. After washing with serum-free DMEM medium, the cells were loaded with H2DCF-DA for 30 min. The intensity of dichlorofluorescin fluorescence was measured with plate reader PHERAstar FS (BMG Labtech, Germany) at λex = 485 nm and λem = 518 nm. The cytoprotective effect of peptides and the increase in cell viability under their action was calculated as a percentage, taking the cell viability treated with 6-OHDA as 100%.

In the case of “rHCIQ2c1: recombinant Kunitz-peptide of Heteractis crispa, most prevalent isoform, mature peptide 58 aa, expressed in E. coli (IQGNICSEPKKVGRCRGSFPRFYFDSETGKCTPFIYGGCGGNGNNFETLHACRAICRA; ends and bridges not checked; cysteine pairing not given here)”, the “Reduction of ROS production” value (0.001–0.01 µM peptide, pretreatment 1 h, 6-OHDA 25 µM 30 min, dichlorofluorescin fluorescence) is reported as 34% and the “Concentration dependence of ROS level” value (up to 10 µM peptide, 6-OHDA 25 µM) is reported as “An increase in ROS formation when the concentration of rHCIQ2c1 increases from 0.01 to 1 µM, and its decrease again at 10 µM”.
